Series [1] has as its system SKBR-3 human breast cancer cell line. Nature of the series: CellTiter-Glo cell proliferation assay, dose matrix, SKBR-3. The series is classed as cell-based. The note with it: SKBR-3, 72 hrs; for Amax, the maximum fraction of inhibition: fraction growth inhibition compare to DMSO control, everolimus 1 nM-27 nM, Compound I 4 nM-3 μM.
Description: The human breast cancer cell line SKBR-3 is purchased from American Type Cell Collection. The SKBR-3 human breast cancer cell line is HER2 amplified.
Single agent dose responding curves, IC50, IC90, and the Synergy are all analyzed using Chalice software (CombinatoRx, Cambridge Mass.). Synergy is calculated by comparing a combination's response to those of its single agents, against the drug-with-itself dose-additive reference model. Deviations from dose additivity can be assessed visually on an Isobologram or numerically with a Combination Index. Excess inhibition compare to additivity can also be plotted as a full dose-matrix chart to capture where the synergies occur. To quantify the overall strength of combination effects, a volume score VHSA=ΣX,Y, InfX InfY (Idata−IHSA) is also calculated between the data and the highest-single-agent surface, normalized for single agent dilution factors fX,fY.
The cells are plated at 3000 cells per well in 384 well plates in triplicates, and treated with compound for 72 hrs before the measurement (FIG. 13).
Series [2] deals with BT-474 human breast cancer cell line. The experiment in a line: CellTiter-Glo cell proliferation assay, dose matrix, BT-474. The conditions noted are these: BT-474, 72 hrs; for Amax (maximum fraction of inhibition): fraction growth inhibition compare to DMSO control, everolimus 1 nM-27 nM, Compound I 4 nM-3 μM. The series is classed as cell-based. The procedure: (§1) Cell viability is determined by measuring cellular ATP content using the CellTiter-Glo® Luminescent Cell Viability Assay (Promega #G7573) according to manufacturer's protocol.
(§2) Single agent dose responding curves, IC50, IC90, and the Synergy are all analyzed using Chalice software (CombinatoRx, Cambridge Mass.). Synergy is calculated by comparing a combination's response to those of its single agents, against the drug-with-itself dose-additive reference model. Deviations from dose additivity can be assessed visually on an Isobologram or numerically with a Combination Index. Excess inhibition compare to additivity can also be plotted as a full dose-matrix chart to capture where the synergies occur. To quantify the overall strength of combination effects, a volume score VHSA=ΣX,Y InfX InfY (Idata−IHSA) is also calculated between the data and the highest-single-agent surface, normalized for single agent dilution factors fX,fY.
The experiment setup is identical to the experiment procedure described above for the SKBR-3 model (FIG. 14).

In series [3] the test system is T47-D human breast cancer cell line. The experiment in a line: CellTiter-Glo cell proliferation assay, dose matrix, T47-D. The series is classed as cell-based. The conditions noted are these: 72 hrs; for Amax (maximum fraction of inhibition): fraction growth inhibition compare to DMSO control, everolimus 1 nM-27 nM, Compound I 4 nM-3 μM. The procedure: The human breast cancer cell line T47-D is purchased from American Type Cell Collection. The T47-D human breast cancer cell line includes PIK3CA mutation.
as §1, §2
The experiment setup is identical to the experiment procedure described above for the SKBR-3 model (FIG. 15).

Series [4] has as its system ZR-75-1 human breast cancer cell line. Nature of the series: CellTiter-Glo cell proliferation assay, dose matrix, ZR-75-1. The series is classed as cell-based. The note with it: for Amax (maximum fraction of inhibition): ZR-75-1, 72 hrs, fraction growth inhibition compare to DMSO control, everolimus 1 nM-27 nM, Compound I 4 nM-3 μM.
Series [5] in a line: Toxicity (body weight, deaths) in DU145 xenograft study. The series is classed as in vivo, nude mice (nu/nu). Set-up: key to Mean BW Nadir: — indicates no decrease in mean body weight is observed. The note with it: for Deaths (TR/NTR): ten mice. Here is the method: Paclitaxel is administered via bolus tail veil injections (i.v.) once daily on alternate days for five doses (qod×5). The dosing volume, 10 mL/kg ( )0.2 mL/20 g mouse), is scaled to the weight to each animal as determined on the day of dosing, except on weekends, when the Friday BWs are carried forward.
11 groups of nude mice (n=10 per group) are treated as follows: Group 1 mice receives Vehicle 1 and Vehicle 2, and served as controls for all analyses. […] Groups 5-7 receives monotherapies with 2.5, 5, and 10 mg/kg RAD001, respectively. […] Group 11 receives 25 mg/kg paclitaxel.
Animals are weighed on Days 1-5, and on each treatment day (except weekend days) until the end of the study. Acceptable toxicity for the maximum tolerated dose is defined as a group mean BW loss of less than 15% during the test, and not more than one treatment-related (TR) death among ten animals. Any animal with BW losses exceeding 20% for one measurement, is to be euthanized and classified as a TR death, unless it is the first death in the group. Non-treatment-related (NTR) deaths are to be categorized as NTRa (due to accident or error), NTRu (due to unknown causes), or NTRm (necropsy-confirmed tumor dissemination by invasion and/or metastasis).

The test system of series [6] is DU145 human prostate carcinoma. Nature of the series: Tumor growth inhibition, DU145 human prostate carcinoma nude mouse xenograft model. The note with it: for Mean volume Change: Day 1 to Day 21; for T/C: Day 21.
The mark [7] stands for this setting: single agent, read-out: IC50 (cell growth).
Where [8] appears, read: Group 2: Compound I 12.5 mg/kg p.o. qd×21.
[9] abbreviates: Group 3: Compound I 25 mg/kg p.o. qd×21.
Where [10] appears, read: Group 4: Compound I 50 mg/kg p.o. qd×21.
The mark [11] stands for this setting: Group 11: Paclitaxel 25 mg/kg i.v. qod×5.
[12] abbreviates: Group 5: RAD001 2.5 mg/kg p.o. qd×21.
[13] abbreviates: Group 6: RAD001 5 mg/kg p.o. qd×21.
The mark [14] stands for this setting: Group 7: RAD001 10 mg/kg p.o. qd×21.

pIC50: −log10 of the molar value.

With `Cc1nc(NC(=O)N2CCC[C@H]2C(N)=O)sc1-c1ccnc(C(C)(C)C(F)(F)F)c1` [Compound I, (S)-Pyrrolidine-1,2-dicarboxylic acid 2-amide 1-({4-methyl-5-[2-(2,2,2-trifluoro-1,1-dimethyl-ethyl)-pyridin-4-yl]-thiazol-2-yl}-amide)], the “Amax, the maximum fraction of inhibition” value in series [1] was found to be 0.40. Also, the “Amax (maximum fraction of inhibition)” value is “around 0.53” in series [2], “around 0.67” in series [3] and “around 0.16” in series [4]. Further, the pIC50 in series [2] (setting [7]) was roughly 5.52; in series [3] (setting [7]), roughly 6.48. Besides, the “Mean BW Nadir” value is given as “—” in series [5] (setting [8]); “—” in series [5] (setting [9]); −8.1% in series [5] (Group 4: Compound I 50 mg/kg p.o. qd×21, % change from Day 1, nadir Day 8). In addition, the entries for the “Deaths (TR/NTR)” value in series [5] (setting [8]), in series [5] (setting [9]) and in series [5] (setting [10]) were 0/0, 0/0 and 3/0, respectively. The figures for the “Mean volume Change” value in series [6] (setting [8]), in series [6] (setting [9]) and in series [6] (setting [10]) were 501 mm^3, 129 mm^3 and 150 mm^3, respectively. Besides, the T/C result in series [6] (setting [8]) is recorded as “(T/C = 64%)”; in series [6] (setting [10]) it was “(T/C = 19%)”. The “Statistical Signif. vs. G1” value in series [6] (Group 2: Compound I 12.5 mg/kg, Kruskal-Wallis with Dunn's test) is “ns (vs. G1)”; in series [6] (Group 3: Compound I 25 mg/kg, Kruskal-Wallis with Dunn's test), “*** (vs. G1) (*** = P < 0.001)”.

Consider `CC(=O)O[C@H]1C(=O)[C@@]2(C)[C@H]([C@H](OC(=O)c3ccccc3)[C@]3(O)C[C@H](OC(=O)[C@H](O)[C@@H](NC(=O)c4ccccc4)c4ccccc4)C(C)=C1C3(C)C)[C@]1(OC(C)=O)CO[C@@H]1C[C@@H]2O` [Paclitaxel], for which the “Mean BW Nadir” value in series [5] (Group 11: Paclitaxel 25 mg/kg i.v. qod×5, % change from Day 1, nadir Day 12) is recorded as −1.9%. Further, in series [5] (setting [11]), the “Deaths (TR/NTR)” value is recorded as 0/1. In series [6] (setting [11]), the “Mean volume Change” value is on record as 898 mm^3 and the T/C result is “(TIC = 115%)”. For the same molecule, in series [6] (Group 11: Paclitaxel 25 mg/kg, Mann-Witney U test), the “Statistical Signif. vs. G1” value is “ns (using”.

Turning to `CO[C@H]1C[C@@H]2CC[C@@H](C)[C@@](O)(O2)C(=O)C(=O)N2CCCC[C@H]2C(=O)O[C@H]([C@H](C)C[C@@H]2CC[C@@H](OCCO)[C@H](OC)C2)CC(=O)[C@H](C)/C=C(\C)[C@@H](O)[C@@H](OC)C(=O)[C@H](C)C[C@H](C)/C=C/C=C/C=C/1C` [everolimus (RAD001), (1R,9S,12S,15R,16E,18R,19R, 21R,23S,24E,26E,28E,30S,32S,35R)-1,18-dihydroxy-12-{(1R)-2-[(1 S,3R,4R)-4-(2-hydroxyethoxy)-3-methoxycyclohexyl]-1-methylethyl}-19,30-dimethoxy-15,17,21,23,29,35-hexamethyl-11,36-dioxa-4-aza-tricyclo[30.3.1.04,9] hexatriaconta-16,24, 26,28-tetraene-2,3,10,14,20-pentaone], in series [1], the “Amax, the maximum fraction of inhibition” value is 0.32. In addition, in series [1] (single agent, 1 nM-27 nM), the “IC50 (cell proliferation)” value is reported as “never achieved an IC50”. The “Amax (maximum fraction of inhibition)” value in series [2] is given as 0.36; in series [3], 0.37; in series [4] it was 0.55. Besides, the “IC50 (cell growth)” value in series [2] (single agent) is “never achieves an IC50”; in series [3] (single agent) it was “never achieved an IC50”. Moreover, the pIC50 in series [4] (Homo sapiens, ZR-75-1, 72 h, read-out: IC50 (cell proliferation)) is roughly 7.82. The “Mean BW Nadir” value in series [5] (setting [12]), in series [5] (setting [13]) and in series [5] (setting [14]) was “—” each time. In addition, the “Deaths (TR/NTR)” value in series [5] (setting [12]), in series [5] (setting [13]) and in series [5] (setting [14]) was 0/0 throughout. The figures for the “Mean volume Change” value in series [6] (setting [12]), in series [6] (setting [13]) and in series [6] (setting [14]) were 424 mm^3, 269 mm^3 and 341 mm^3, respectively. For the same molecule, the figures for the T/C result in series [6] (setting [12]), in series [6] (setting [13]) and in series [6] (setting [14]) were “(T/C = 54%)”, “(T/C = 43%)” and “(T/C = 43%)”, respectively. Further, the “Statistical Signif. vs. G1” value in series [6] (Group 5: RAD001 2.5 mg/kg, Kruskal-Wallis with Dunn's test) is “ns (vs. G1)”; in series [6] (Group 6: RAD001 5 mg/kg, Kruskal-Wallis with Dunn's test), “* (vs. G1) (* = P < 0.05)”; in series [6] (Group 7: RAD001 10 mg/kg, Kruskal-Wallis with Dunn's test), “ns (vs. G1)”.

The values are drawn from patent US20180085362A1, “COMBINATION OF PHOSPHATIDYLINOSITOL-3-KINASE (PI3K) INHIBITOR AND A MTOR INHIBITOR” (Novartis AG, priority 2011, published 2018).
